Source: patent US20040253647A1, “Cell-based high-throughput screening methods” (priority 2001, published 2004)
Peptide text beside a SMILES is read from it. * marks the point of attachment. Cbz = O=C(OCc1ccccc1)*

Tests used:
Format in all cases: cell-based, murine
[1] = test system: βCTF levels in L/APP cells (L cell line overexpressing human APP695); experiment: βCTF ELISA (C1/6.1 capture, JRF/AβN/25 detection) on cell lysates; details: for reduction of βCTF levels relative to control: 10 μg/ml for 6 hours (FIG. 10B); for βCTF levels: control 2.7 (FIG. 8A)
Procedure: (§1) Cell lines, cDNA constructs, and transfections. Ltk-cells (a murine fibroblast-like cell line; (S. Kit et al., 1967, J. Virol., 1(1): 238-240) were maintained at 37° C. and 5% CO2 in high glucose DMEM, (Celigro, Hedon, Va.) supplemented to contain 10% fetal bovine serum (Gemini, Woodland, Calif.), 2 mM glutamax I (Gibco/BRL, Gaithersburg, Md.), and penicillin/streptomycin (Celigro). cDNAs encoding human APP695 and human rab5 were inserted into the mammalian expression vector pcDNA3 (Invitrogen, Carlsbad, Calif.). Following transfection using lipofectin (manufacturer's protocol; Gibco/BRL), stable L cell lines overexpressing APP695 were selected in 400 μg/ml G418 (Gemini) and screened for expression. Transient transfections with rab5 were done using lipofectAMINE (Gibco/BRL) or fugene (Boehringer-Mannheim, Indianapolis, Ind.) according to the manufacturers' protocol.
(§2) Sandwich ELISAs. Sandwich ELISAs using the antibodies as presented in Table 1 were performed essentially as has been reported (C. Janus et al. Id.; R. Rozmahel et al., Neurobiology of Aging, 23:187-194; and P. M. Mathews et al., 2002, J. Biol. Chem., 277: 5299-5307), with modifications to detect cell-associated APP metabolites. The wells of Nunc-Immuno PIates (Nunc A/S, Roskilde, Denmark) were coated overnight at 4° C. using 20 μg/ml of C1/6.1 and the remaining protein binding sites were blocked by incubating with 1% Block Ace (Yukijirushi Milk, Sapporo Japan) in PBS (200 μl/well) for 4 hours at room temperature.
(§3) For the βCTF ELISA, a synthetic peptide was prepared, i.e., […], (SEQ ID NO:1), that contains both the JRF/AβN/25 epitope (SEQ ID NO:4) and the C1/6.1 epitope (SEQ ID NO:2), (see Table I). For the APP/total CTF ELISA, a glutathione S-transferase fusion protein containing the C-terminal 99 residues of human APP (GST-βPP672-770; (K. Islam and E. Levy, 1997, Am. J. Pathol. 151(1):265-71) was prepared. This fusion protein contains both the C1/6.1 and C2/7.1 epitopes. These standards, prepared as stock solutions, were dissolved in DMSO, stored at −70° C., and were further diluted in buffer containing 20 mM Na phosphate, 2 mM EDTA,. 400 mM NaCl, 0.2% BSA, 0.05% CHAPS, 0.4% Block Ace and 0.05% NaN3, pH 7.0 immediately, prior to use.
(§4) ELISA plates were incubated overnight at 4° C. with samples and standards. Samples, as described herein, were cell lysates prepared in 1% Triton X-100®, 140 mM NaCl, 25 mM Tris (pH 7.4), 0.5 mM EDTA, and protease inhibitors. Lysates were vortexed briefly, allowed to rest on ice for 30 minutes, and centrifuged at 6,000 rpm in an Eppendorf centrifuge. The supernatant was used for the ELISA. Following overnight binding of APP and APP metabolites to the capture antibody (C/1/6.1), the wells were washed twice with phosphate buffered saline (PBS) containing 0.5% Triton X-100®/0.05% Tween-20 followed by two washes with PBS. A solution containing 20 mM Na phosphate, 2 mM EDTA, 400 mM NaCl, and 1% BSA, pH 7.0 was then added to the wells for 1 hour at room temperature.
(§5) APP and cell-associated APP metabolites were detected by incubating for 4 hours at room temperature with horseradish peroxidase (HRP)-conjugated C2/7.1 or JRF/AβN/25 diluted in 20 mM Na phosphate, 2 mM EDTA, 400 mM NaCl, 1% BSA, pH 7.0. Thereafter, the wells were again washed twice with phosphate buffered saline (PBS) containing 0.5% Triton X-100®/0.05% Tween-20, followed by two washes with PBS. ELISA plates were developed using a color reaction (TMB Microwell Peroxidase Substrate System, Kirkegaard & Perry, Gaithersburg, MD) and the OD450 was read. ELISA signals are reported as the mean ±SE of two or more wells in femtomoles per ml relative to standard.
(§6) Preparation of cell lysates for ELISA. Cells were seeded into 6-well dishes and allowed to settle overnight. […]

[2] = test system: APP holoprotein and all CTFs in L/APP cells; experiment: APP/total CTF ELISA (C1/6.1 capture, C2/7.1 detection) on L/APP cell lysates; details: for cellular APP levels (APP/total CTF) relative to untreated control cells: 10 μg/ml for 6 hours (FIG. 10A)
Procedure: as §1, §2, §3, §4, §5, §6

[3] = test system: Aβ1-40 secreted by L/APP cells; experiment: Aβ1-40 ELISA of growth media; details: 10 μg/ml, 6 hour incubation (FIG. 10C)
Procedure: L/APP cells were plated at equal density and APP expression was induced. Cells were then incubated for 6 hours without treatment, or with the addition of 10 μg/ml cyclohexamide or 10 μg/ml 3-methyl adenine (3MA). APP/total CTF levels (FIG. 10A) and βCTF levels (FIG. 10B) in cell lysates were then determined by ELISA. Aβ1-40 (FIG. 10C) and Aβ1-42 (FIG. 10D) levels secreted into the growth media during this 6 hour incubation were determined by ELISA (C. Janus et al., 2000, Nature, 408(6815):979 982). Data are expressed as a percentage of, the level seen in untreated control cells for each assay.
In addition, Aβ levels in the growth media were examined from these test cells. […] Again, the reduction in Aβ generation obtained with cyclohexamide treatment is due to non-specific cytotoxicity, while the reduction in Aβ generation obtained following 3MA treatment is linked to a specific reduction in βCTF generation.

[4] = test system: APP holoprotein, αCTF and βCTF in L/APP cells; experiment: Metabolic pulse-chase labeling and immunoprecipitation of APP and CTFs; details: for levels of αCTFs and βCTFs after 1 hour chase (C1/6.1 immunoprecipitation): 10 μM, 3 hours pretreatment plus pulse and chase (FIG. 1)
Procedure: Metabolic labeling, immunoprecipitation and Western blot analysis. To detect APP and CTFs, 5×10^5 cells were seeded onto 35-mm diameter tissue culture dishes followed by induction of human APP695 expression with 20 mM butyrate for 24 hours (P. M. Mathews et al., 1992, J. Cell. Biol., 118(5):1027-1040; P. M. Mathews et al., 2000 Mol Med., 6(10)878-891). Cultures were methionine/cysteine starved for 20 minutes, pulse-labeled for 15 minutes with 100 μCi/ml TRANS^35S-LABEL (Dupont-NEN), washed, and chased in complete medium containing 2 mM unlabeled methionine (P. M. Mathews et al., 1992, J. Cell. Biol., 118(5):1027-1040). Calpain inhibitors, as described herein, were added to the growth medium 3 hours prior to methionine/cysteine starvation and then throughout pulse-labeling and chase.
Cell lysates (prepared in 1% Triton X-100, 140 mM NaCl, 25 mM Tris pH 7.4, 0.5 mM EDTA, 10 mM methionine and protease inhibitors; (P. M. Mathews et al., 1992, J. Cell. Biol., 118(5):1027-1040; A. Beggan et al., 1996, J. Biol. Chem., 271(34):20895-20902) were subjected to immunoprecipitation with various monoclonal antibodies as described in Example 2. Immunoprecipitated proteins were sized by SDS-PAGE and labeled proteins were visualized by exposure to x-ray film and analyzed quantitatively using a Storm 840 phosphorimager (Molecular Dynamics/Amersham Biosciences, Sunnyvale, Calif. and/or by scan analysis (NIH Image).
To determine whether a particular monoclonal antibody detected APP holoprotein and/or αCTF and/or βCTF or both, L cells overexpressing human APP695 (L/APP cells) were metabolically labeled for 15 minutes, and then were chased for 1 hour (FIG. 1, lanes 1-6).
Thus, in addition to control conditions, cells were treated for 3 hours prior to, as well as during, the pulse and chase periods with the indicated calpain inhibitors (FIG. 1, lanes 7-18) to increase the levels of metabolically labeled CTFs prior to immunoprecipitation. Equal volumes of detergent lysates prepared from the pulse and chase periods were subjected to immunoprecipitation with each of the monoclonal antibodies and labeled APP species were resolved on 4-20% gradient SDS-PAGE.
The pulse-chase experiment shown in FIGS. 2A and 2B was designed to determine if C1/6.1 was able to detect other species of CTFs (e.g. the γCTF). Accordingly, L/APP cells were pulse-labeled for 15 minutes and chased for the indicated times up to 6 hours prior to immunoprecipitation of lysates with C1/6.1.

[5] = test system: APP holoprotein and all CTFs in parental L cells; experiment: APP/total CTF ELISA on parental L cell lysates; details: 10 μM calpeptin 6 hours (FIG. 7B)
Procedure: as §1
Sandwich ELISAs. […]
APP and cell-associated APP metabolites were detected by incubating for 4 hours at room temperature with horseradish peroxidase (HRP)-conjugated C2/7.1 or JRF/AβN/25 diluted in 20 mM Na phosphate, 2 mM EDTA, 400 mM NaCl, 1% BSA, pH 7.0. […] ELISA plates were developed using a color reaction (TMB Microwell Peroxidase Substrate System, Kirkegaard & Perry, Gaithersburg, MD) and the OD450 was read. […]

APP CTFs in L/APP cells = experiment: Western blot analysis using C1/6.1; details: 10 μm calpeptin 6 hours (FIG. 5A)
Procedure: For Western blot analysis, protein concentration in cell lysates was determined (BioRad DC Protein Assay, BioRad, Rockville Center, N.Y.), and equal amounts of proteins were separated by SDS-PAGE and transferred to PVDF membrane. Membranes were incubated in C1/6.1 (2 μg/ml) overnight, washed, and incubated with HRP-conjugated goat anti-mouse IgG for 1.5 hours. Membranes were incubated in ECL substrate (Amersham, Arlington Heights, Ill.) and exposed to x-ray film.
In this rab5 overexpression experiment, L/APP cells were transiently-transfected with no DNA (FIG. 5A, lanes 1 and 2), or rab5 cDNA (FIG. 5A, lanes 3-5) and the levels of APP holoprotein and CTFs were determined by Western blot analysis using C1/6.1 (FIG. 5A).

[6] = 75 μg/ml cyclohexamide 6 hours, versus control

**Q.** `Cn1cnc(N)c2ncnc1-2` [3MA, 3-methyl adenine] was tested. Which “reduction of βCTF levels relative to control” value [1] did it give?
**A.** The value was 50%.

**Q.** What about the “cellular APP levels (APP/total CTF) relative to untreated control cells” value [2] of the same compound?
**A.** The value was “did not reduce cellular APP levels”.

**Q.** What about the “Aβ1-40 levels in growth media relative to control” value [3] of the same compound?
**A.** The value was “reduction in Aβ1-40 levels relative to control”.

**Q.** `CC(C)[C@H](NC(=O)OCc1ccccc1)C(=O)N[C@H](C=O)Cc1ccccc1` [calpain inhibitor III] (Cbz-Val-Phe-aldehyde) was tested. Which “levels of αCTFs and βCTFs after 1 hour chase (C1/6.1 immunoprecipitation)” value [4] did it give?
**A.** Its value is “substantial and apparently proportionate increase in the levels of both αCTFs and βCTFs”.

**Q.** Which βCTF levels ([1]; 10 μM calpeptin 6 hours) does the source give for `CCCC[C@@H](C=O)NC(=O)[C@H](CC(C)C)NC(=O)OCc1ccccc1` [calpeptin] here?
**A.** Its βCTF levels is 5.4 fmol/mL.

**Q.** And the “amount of βCTFs detected by ELISA” value ([1]; 10 μM calpeptin 6 hours, untreated 16.1 (FIG. 5B))?
**A.** The value was 26.0 fmol/mL.

**Q.** And the “βCTF levels detected by ELISA” value ([1]; 10 μM calpeptin for 6 hours, untreated 5.8±0.3 (FIG. 4))?
**A.** Its value is 10.0 ± 0.6 fmol/mL.

**Q.** What about the “generation of α and βCTFs during the initial 1 hour of chase” value ([4]; 10 μM calpeptin (FIG. 2B)) of the same compound?
**A.** Its value is “substantially increased the generation of both α and βCTFs”.

**Q.** What about the “turnover of CTFs” value ([4]; 10 μM calpeptin (FIG. 2B)) of the same compound?
**A.** Its value is “did not appear to reduce the turnover of CTFs”.

**Q.** And the “turnover of APP holoprotein” value ([4]; 10 μM calpeptin, chase up to 6 hours (FIG. 2A))?
**A.** The value was “unchanged”.

**Q.** What about the “levels of αCTFs and βCTFs after 1 hour chase (C1/6.1 immunoprecipitation)” value [4] of the same compound?
**A.** The value was “substantial and apparently proportionate increase in the levels of both αCTFs and βCTFs”.

**Q.** And the “APP/total CTF ELISA signal” value [5]?
**A.** The value was “increased the signal in the L cells, although not to a statistically significant degree”.

**Q.** What about the “APP/total CTF ELISA signal” value ([2]; 10 μM calpeptin 6 hours (FIG. 7B)) of the same compound?
**A.** The value was “greatly increased the ELISA signal”.

**Q.** What about the “change in APP/total CTF levels” value ([2]; 10 μM calpeptin 6 hours (FIG. 8B)) of the same compound?
**A.** The value was “smaller relative increase in APP/total CTF levels”.

**Q.** And the “levels of CTFs by Western blot” value (APP CTFs in L/APP cells)?
**A.** Its value is “greatly increased the levels of CTFs detected”.

**Q.** With `C[C@@H]1C[C@@H]([C@H](O)CC2CC(=O)NC(=O)C2)C(=O)[C@@H](C)C1` [cyclohexamide] as the compound, how does the “reduction of βCTF levels relative to control” value [1] read?
**A.** The value was “reduced βCTF levels somewhat more”.

**Q.** And the βCTF levels ([1]; 75 μg/ml cyclohexamide 6 hours)?
**A.** Its βCTF levels is 0.6 fmol/mL.

**Q.** What about the “reduction of βCTF levels” value [1, 6] of the same compound?
**A.** The value was 78%.

**Q.** And the “cellular APP levels (APP/total CTF) relative to untreated control cells” value [2]?
**A.** Its value is “cyclohexamide treatment did”.

**Q.** And the “APP/total CTF levels” value ([2]; 75 μg/ml cyclohexamide 6 hours, control 608 (FIG. 8B))?
**A.** The value was 74 fmol/mL.

**Q.** What about the “reduction of APP/total CTF levels” value [2, 6] of the same compound?
**A.** Its value is 88%.

**Q.** What about the “Aβ1-40 levels in growth media relative to control” value [3] of the same compound?
**A.** Its value is “reduction in Aβ1-40 levels relative to control”.
